Experimental data as given in patent US5639887A, “MDR reversal agents” (priority 1995, dated 1997).

How the values were obtained:
[1] = system: bisantrene-resistant human ovarian carcinoma cells S1-B1-20 (OVCAR-3 subclone); experiment: Screening assay for reversal agents: Difference Score with/without 20 μM bisantrene; type: cell-based; conditions: alone vs with 20 μM bisantrene, 3 days, difference in % cell survival
Description: Such cells are sorted by a fluorescent activated cell sorter (FACS; Becton Dickinson Model 440).
Cells, prepared by trypsinization, are plated at 20,000 cells/well in media with and without bisantrene. Then, test agents at varying concentrations are added to the cells. […] Completed plates are incubated for 3 days at 37° C. in a moisturized 7% CO2 atmosphere. […] Dye content/well is read at 540 nm in a microtiter reader. Values are electronically processed, % cell survival compared to untreated cells is computed, and the results are expressed as the difference between these values. Experiments are run in the presence of the test agent alone and the test agent in combination with 20 μM bisantrene. The Difference Score between those two experiments is reported below for 3 different concentrations of test agent.

[2] = system: human epidermoid carcinoma KB/8.5; experiment: In vivo evaluation of MDR-1 reversal agents against human epidermoid carcinoma KB/8.5 implanted SC in athymic nude mice; parameters: species or system human (tumor in athymic nude mice)
Description: The multiple drug resistant human epidermoid carcinoma KB/8.5 is propagated in medium containing colchicine (10 nanograms/ml) to maintain drug resistance. Colchicine is removed from the medium, for two cell passages, prior to subcutaneous (SC) implant of 8×10^6 KB/8.5 tumor cells into athymic "nude" mice (Harlan Sprague Dawley). […] Individual mouse tumor mass and mean tumor mass for each treatment group is determined on Day +14 and Day +21 of the test period. For each treatment group, the Relative Tumor Growth, RTG, is calculated as follows: [formula]
Statistical analysis of Log Relative Tumor Growth is carried out using the Student t-test. Transformation of the data from absolute mean tumor mass (mgs tumor mass) to Log Relative Tumor Growth prior to statistical analysis has two beneficial effects:
1) it corrects the data for differences in mean tumor mass of the different treatment groups at the start of the test period (Day 0); and
2) the Log transformation of the data more adequately reflects the exponential growth pattern of the SC tumors and makes the use of the Student t-test more appropriate.

[3] = system: vincristine resistant murine leukemia P388/VCR; experiment: In vivo evaluation of MDR-1 reversal agents against vincristine resistant murine leukemia P388/VCR implanted IP in CDF1 mice; conditions: for % ILS: vs vincristine alone
Description: Tumor cell ascites are harvested 5-7 days later. For drug testing, groups of 10-15 CDF1 mice (DBA/2×Balb/cF1 hybrids; Charles River Laboratories, Inc) are injected IP with 0.5 ml of diluted ascitic fluid containing 1×10^6 viable P388/VCR tumor cells. […] Drugs are administered once daily, by the IP, intravenous (IV) or oral route, starting one day after tumor implantation and using a variety of treatment schedules. Mice are weighed periodically, survival is recorded for 30 days post tumor implantation, and Mean survival times are calculated for all groups of mice. Statistical analysis of Mean survival times is carried out using the Student t-test.

[4] = doxorubicin 8 mg/kg IV + compound 50 mg/kg/dose SC at -2 h and +2 h
[5] = doxorubicin 8 mg/kg IV + compound 100 mg/kg/dose SC at -2 h and +2 h
[6] = vincristine 0.2 + compound 75 mg/kg, days 1-7, IP
[7] = vincristine 0.2 + compound 100 mg/kg, days 1-7, ORAL
[8] = vincristine 0.2 + compound 200 mg/kg, days 1-7, ORAL
[9] = vincristine 0.4 + compound 25.0 mg/kg, days 1-3, IP
[10] = vincristine 0.4 + compound 50.0 mg/kg, days 1-3, IP
[11] = doxorubicin 8 mg/kg IV + compound 75 mg/kg/dose SC at -2 h and +2 h
[12] = doxorubicin 8 mg/kg IV + compound 200 mg/kg/dose SC at -2 h and +2 h
[13] = vincristine 0.2 + compound 6.3 mg/kg, days 1-7, IP
[14] = doxorubicin 8 mg/kg IV + compound 25 mg/kg/dose SC at -2 h and +2 h
[15] = doxorubicin 8 mg/kg IV + compound 150 mg/kg/dose SC at -2 h and +2 h
[16] = doxorubicin 8 mg/kg IV + compound […] SC at -2 h and +2 h
[17] = vincristine 0.2 + compound 25 mg/kg, days 1-5, IP
[18] = vincristine 0.2 + compound 50 mg/kg, days 1-5, IP
[19] = vincristine 0.4 + compound 25 mg/kg, days 1-3,6,7, IV
[20] = vincristine 0.4 + compound 50 mg/kg, days 1-3,6,7, IV
[21] = vincristine 0.6 + compound 6.3 mg/kg, days 1,5,9, IP
[22] = vincristine 0.6 + compound 25 mg/kg, days 1,2, IV
[23] = vincristine 0.6 + compound 25 mg/kg, days 1,5,9, IP
[24] = vincristine 0.6 + compound 50 mg/kg, days 1,2, IV
[25] = vincristine 0.8 + compound 25 mg/kg, days 1,2, IV
[26] = vincristine 0.2 + compound 25 mg/kg, days 1-7, IP
[27] = vincristine 0.2 + compound 50 mg/kg, days 1-7, IP
[28] = doxorubicin 8 mg/kg IV + compound 200 mg/kg/dose SC x2

## 2-[6-Cyano-6(3,4-dimethoxyphenyl)-6-[(4-methylphenyl)-thio]hexyl]-1,2,3,4-tetrahydo-5-methoxy-7-isoquinoline trifluoromethanesulfonic acid [Example 102]
[1]; test agent 1 microM
  Difference Score at 1 microM: 30
[1]; test agent 10 microM
  Difference Score at 10 microM: 82
[1]; test agent 20 microM
  Difference Score at 20 microM: 82

## COc1ccc(C(C#N)(CCCN2CCc3cc(OC)c(OC)cc3C2)Sc2ccc(C)cc2)cc1OC (stereo not drawn) [Example 3, α-(3,4-Dimethoxyphenyl)-3,4-dihydro-6,7-dimethoxy-α-[(4-methylphenyl)thio]-2(1H)-isoquinolinepentanenitrile]
[2]; [4]
  Relative Tumor Growth Day 21: 8.38
[2]; [5]
  Relative Tumor Growth Day 21: 8.87
[3]; [6]
  MST: 16.7 days
  % ILS: +21%
[3]; [7]
  MST: 15.8 days
  % ILS: +15%
[3]; [8]
  MST: 16.4 days
  % ILS: +20%
[3]; [9]
  MST: 15.6 days
  % ILS: +10%
[3]; [10]
  MST: 16.3 days
  % ILS: +15%

## COc1ccc(C(C#N)(CCCCCCCCCCCN2CCc3cc(OC)c(OC)cc3C2)Sc2ccc(C)cc2)cc1OC (stereo not drawn) [Example 14, α-(3,4-Dimethoxyphenyl)-3,4-dihydro-6,7-dimethoxy α-[(4-methylphenyl)thio]-2(1H)-isoquinoline tridecanenitrile]
[2]; [11]
  Relative Tumor Growth Day 21: 5.86
[2]; [12]
  Relative Tumor Growth Day 21: 7.84
[3]; [13]
  MST: 14.3 days
  % ILS: +14%

## COc1ccc(C(C#N)(CCCCCN2CCc3cc(OC)c(OC)cc3C2)Sc2ccc(C)cc2)cc1OC (stereo not drawn) [Example 17, α-(3,4-Dimethoxyphenyl)-3,4-dihydro-6,7-dimethoxy-α-[(4-methylphenyl)thio]-2(1H)-isoquinolineheptanenitrile]
[2]; [14]
  Relative Tumor Growth Day 21: 9.55
[2]; [15]
  Relative Tumor Growth Day 21: 3.35
[2]; [12]
  Relative Tumor Growth Day 21: 5.30
[2]; [16]
  Relative Tumor Growth Day 21: 8.58
[3]; [17]
  MST: 16.8 days
  % ILS: +22%
[3]; [18]
  MST: 16.1 days
  % ILS: +17%
[3]; [19]
  MST: 13.3 days
  % ILS: +17%
[3]; [20]
  MST: 13.4 days
  % ILS: +18%
[3]; [21]
  MST: 12.9 days
  % ILS: +12%
[3]; [22]
  MST: 10.1 days
  % ILS: +5%
[3]; [23]
  MST: 15.8 days
  % ILS: +38%
[3]; [24]
  MST: 11.1 days
  % ILS: +16%
[3]; [25]
  MST: 11.1 days
  % ILS: +13%

## COc1ccc(C(C#N)(CCCCCN2CCc3cc4c(cc3C2)OCO4)Sc2ccc(C)cc2)cc1OC (stereo not drawn) [Example 21]
[3]; [26]
  MST: 14.5 days
  % ILS: +16%

## COc1ccc2c(c1)CCN(CCCCCC(C#N)(Sc1ccc(C)cc1)c1ccc(OC)c(OC)c1)C2 (stereo not drawn) [Example 22]
[3]; [13]
  MST: 15.2 days
  % ILS: +20%

## COc1ccc(C(C#N)(CCCCCN2Cc3cc(OC)c(OC)cc3C2)Sc2ccc(C)cc2)cc1OC (stereo not drawn) [Example 26, α-(3,4-Dimethoxyphenyl)-1,3-dihydro-5,6-dimethoxy-α-[(4-methylphenyl)thio]-2H-isoindole-2-heptanenitrile]
[2]; [11]
  Relative Tumor Growth Day 21: 3.49
[2]; [15]
  Relative Tumor Growth Day 14: Toxic
  Relative Tumor Growth Day 21: Toxic
[2]; [12]
  Relative Tumor Growth Day 14: Toxic
  Relative Tumor Growth Day 21: Toxic
[3]; [13]
  MST: 13.8 days
  % ILS: +23%
[3]; [26]
  MST: 15.8 days
  % ILS: +41%

## COc1ccc(C(C#N)(CCCCCN2CCc3cc(OC)c(OCCn4ccnc4)cc3C2)Sc2ccc(C)cc2)cc1OC (stereo not drawn) [Example 33, α-(3,4-Dimethoxyphenyl)-3,4-dihydro-7-[2-(1H-imidazol-1-yl)ethoxy]-6-methoxy-α-[(4-methylphenyl)thio]-2(1H)-isoquinolineheptanenitrile]
[3]; [26]
  MST: 15.6 days
  % ILS: +39%
[3]; [27]
  MST: 16.6 days
  % ILS: +48%

## COc1ccc(C(C#N)(CCCCCCN2CCc3cc(OC)c(OC)cc3C2)Sc2ccc(C)cc2)cc1OC (stereo not drawn) [Example 37, α-(3.4-Dimethoxyphenyl)-3,4-dihydro-6,7-dimethoxy-α-[(4-methylphenyl)thio]-2(1H)-isoqutnolineoctanenitrile]
[3]; [26]
  MST: 14.7 days
  % ILS: +17%

## COc1ccc(C(CCCCCN2CCc3cc(OC)c(OC)cc3C2)Sc2ccc(C)cc2)cc1OC (stereo not drawn) [Example 41, 2-[6-(3,4-Dimethoxyphenvl]-6-[(4-methylphenyl)thio]-hexyl]-1,2,3,4-tetrahydro-6,7-dimethoxyisoquinoline]
[2]; [14]
  Relative Tumor Growth Day 21: 6.15
[2]; [11]
  Relative Tumor Growth Day 21: 8.54
[2]; [12]
  Relative Tumor Growth Day 21: 4.57
[2]; [28]
  toxicity remark (tox), Day 14: tox
  toxicity remark (tox), Day 21: tox
[2]; [16]
  Relative Tumor Growth Day 21: 7.27
[3]; [13]
  MST: 14.1 days
  % ILS: +13%

## COc1ccc2c(c1)CCN(CCCCCC(Sc1ccc(C)cc1)c1ccc(OC)c(OC)c1)C2 (stereo not drawn) [Example 46, 2-[6-(3,4-Dimethoxyphenyl)-6-[(4-methylphenyl)thio]-hexyl]-1,2,3,4-tetrahydro-6-methoxyisoquinoline]
[2]; [14]
  Relative Tumor Growth Day 21: 9.65
[2]; [4]
  Relative Tumor Growth Day 21: 8.83
[2]; [11]
  Relative Tumor Growth Day 21: 10.23
[2]; [5]
  Relative Tumor Growth Day 21: 10.91
[2]; [12]
  Relative Tumor Growth Day 21: 8.99
[3]; [26]
  MST: 16.7 days
  % ILS: +36%

## COc1cc2c(cc1OC)CN(CCCCCCC(Sc1ccccc1)c1ccccc1)CC2 (stereo not drawn) [Example 112, 1,2,3,4-Tetrahydro-6,7-dimethoxy-2-[7-phenyl-7-(phenylthio]heptyl]isoquinoline]
[3]; [26]
  MST: 16.3 days
  % ILS: +45%
[3]; [27]
  MST: 14.2 days
  % ILS: +26%

## CC[C@]1(O)C[C@H]2CN(CCc3c([nH]c4ccccc34)[C@@](C(=O)OC)(c3cc4c(cc3OC)N(C=O)[C@H]3[C@@](O)(C(=O)OC)[C@H](OC(C)=O)[C@]5(CC)C=CCN6CC[C@]43[C@@H]65)C2)C1 [Vincristine, reference compound]
[3]; vincristine alone 0.6 mg/kg, days 1,2, IV
  MST: 9.6 days
[3]; vincristine alone 0.8 mg/kg, days 1,2, IV
  MST: 9.8 days
